Test [1] has as its target T1, Serine/threonine-protein kinase pim-1 (Homo sapiens, UniProt P11309). The experiment in a line: Inhibition of human PIM1 using KKRNRTLTK as substrate in presence of [gamma-33P]-ATP by hotspot kinase assay.
For test [2], the target named is T1, Serine/threonine-protein kinase pim-1. The test can be described thus: Inhibition of human full length-His6 tagged PIM1 (1 to 312 residues) expressed in Escherichia coli BL21 (DE3) using RSRHSSYPAGT as peptide substrate incubated for 10 mins in presence of [gamma-32P]ATP by radiometric scintillation assay.
Test [3] addresses T2, Serine/threonine-protein kinase pim-2 (Homo sapiens, UniProt Q9P1W9). The experiment in a line: Inhibition of human full length-His6 tagged PIM2 (1 to 311 residues) expressed in Escherichia coli BL21 (DE3) assessed as inhibition constant using RSRHSSYPAGT as peptide substrate incubated for 10 mins in presence of [gamma-32P]ATP by radiometric scintillation assay.
The target of test [4] is T1, Serine/threonine-protein kinase pim-1.
The target of test [5] is T2, Serine/threonine-protein kinase pim-2.
In test [6] the target is T3, Serine/threonine-protein kinase pim-3 (Homo sapiens, UniProt Q86V86).
The test system of test [7] is MCF7. The test can be described thus: Cytotoxicity against human MCF7 cells assessed as reduction in cell viability by MTT assay. Type of test: functional, cell-based. Background: Formazan colour is commonly taken as a measure of viable cells.
Test [8] addresses T1, Serine/threonine-protein kinase pim-1. The test can be described thus: Inhibition of human PIM1 by discoverX kinome scan assay.
The target is the same in test [9]. The test can be described thus: Inhibition of human recombinant PIM1.
Test [10] has as its target T4, Prostaglandin G/H synthase 2 (Homo sapiens, UniProt P35354).
T4 sequence (P35354 whole entry): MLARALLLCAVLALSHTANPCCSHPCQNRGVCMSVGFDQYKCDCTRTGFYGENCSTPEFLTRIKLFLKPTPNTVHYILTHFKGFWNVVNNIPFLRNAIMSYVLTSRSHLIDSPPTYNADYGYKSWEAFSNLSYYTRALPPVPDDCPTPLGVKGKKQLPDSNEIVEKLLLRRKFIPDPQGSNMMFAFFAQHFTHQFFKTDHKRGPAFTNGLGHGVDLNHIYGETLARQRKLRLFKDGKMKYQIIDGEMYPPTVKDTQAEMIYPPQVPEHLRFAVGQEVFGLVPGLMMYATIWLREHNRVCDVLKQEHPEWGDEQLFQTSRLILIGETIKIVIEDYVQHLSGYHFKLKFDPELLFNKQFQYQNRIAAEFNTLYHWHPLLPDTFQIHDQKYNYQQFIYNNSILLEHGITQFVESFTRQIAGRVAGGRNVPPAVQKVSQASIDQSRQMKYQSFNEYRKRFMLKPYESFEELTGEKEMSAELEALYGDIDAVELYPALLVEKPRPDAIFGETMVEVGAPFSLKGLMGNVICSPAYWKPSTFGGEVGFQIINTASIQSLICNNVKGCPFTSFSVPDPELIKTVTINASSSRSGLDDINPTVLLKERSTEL
The experiment in a line: Inhibition of COX2 (unknown origin) fluorescence based analysis.

Test [11] has as its target T2, Serine/threonine-protein kinase pim-2. The test can be described thus: Inhibition of N-terminal GST-tagged full length human PIM2 (1 to 311 residues) expressed in baculovirus expression system using S6K2 peptide as substrate at 1 uM in presence of ATP by Mobility shift assay.
Test [12] has as its target Prostaglandin G/H synthase 1 (Homo sapiens, UniProt P23219). The test can be described thus: Inhibition of COX1 (unknown origin) fluorescence based analysis.
Test [13] addresses T5, Polyunsaturated fatty acid 5-lipoxygenase (Homo sapiens, UniProt P09917).
T5 sequence (P09917 whole entry): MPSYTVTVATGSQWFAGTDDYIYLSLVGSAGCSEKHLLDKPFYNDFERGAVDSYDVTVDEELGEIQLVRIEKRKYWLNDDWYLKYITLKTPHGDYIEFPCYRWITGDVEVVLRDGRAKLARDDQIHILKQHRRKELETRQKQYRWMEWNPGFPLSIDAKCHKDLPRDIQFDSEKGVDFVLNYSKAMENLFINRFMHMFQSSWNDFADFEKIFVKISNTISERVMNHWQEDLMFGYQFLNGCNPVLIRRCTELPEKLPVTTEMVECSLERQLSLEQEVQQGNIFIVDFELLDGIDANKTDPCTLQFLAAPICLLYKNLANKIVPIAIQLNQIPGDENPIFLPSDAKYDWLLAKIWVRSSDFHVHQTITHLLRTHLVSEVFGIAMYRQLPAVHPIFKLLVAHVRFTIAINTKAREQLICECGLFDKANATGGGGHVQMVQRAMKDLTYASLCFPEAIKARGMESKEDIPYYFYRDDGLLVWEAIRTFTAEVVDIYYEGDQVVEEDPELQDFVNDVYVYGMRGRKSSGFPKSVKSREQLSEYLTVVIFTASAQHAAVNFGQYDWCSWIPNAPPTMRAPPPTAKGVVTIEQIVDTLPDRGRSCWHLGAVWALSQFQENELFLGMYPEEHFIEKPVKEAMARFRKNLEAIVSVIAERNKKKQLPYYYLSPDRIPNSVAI
The experiment in a line: Inhibition of 5-LOX in human PMNL cells. Type of test: cell-based.

The next test relates to HepG2. The test can be described thus: Antiproliferative activity against human HepG2 cells assessed as inhibition of cell growth incubated for 72 hrs by MTT assay. The test is classed as functional, cell-based. The following applies: HepG2, 72 h.
A further test has as its system PC-3. The experiment in a line: Anticancer activity against human PC-3 cells assessed as inhibition of cell growth incubated for 24 hrs by MTT assay. Type of test: functional, cell-based. The following applies: PC-3, 24 h.
For test [14], the system named is MCF7. The experiment in a line: Antiproliferative activity against human MCF7 cells assessed as reduction in cell growth incubated for 48 hrs by MTT assay. The test is classed as functional, cell-based. The note with it: MCF7, 48 h.
Test [15] deals with T1, Serine/threonine-protein kinase pim-1. The experiment in a line: Inhibition of PIM1 (unknown origin) by FRET based Z-LYTE kinase assay.
For test [16], the target named is T3, Serine/threonine-protein kinase pim-3. The experiment in a line: Inhibition of PIM3 (unknown origin) by FRET based Z-LYTE kinase assay.
In test [17] the target is T2, Serine/threonine-protein kinase pim-2. The experiment in a line: Inhibition of PIM2 (unknown origin) by FRET based Z-LYTE kinase assay.
Test [18] has as its target T3, Serine/threonine-protein kinase pim-3. The experiment in a line: Inhibition of N-terminal GST-tagged full length human PIM3 (1 to 326 residues) expressed in baculovirus expression system using S6K2 peptide as substrate at 1 uM in presence of ATP by Mobility shift assay.
Test [19] deals with HCT-116. The experiment in a line: Antiproliferative activity against human HCT-116 cells assessed as inhibition of cell growth incubated for 24 hrs by MTT assay. The following applies: HCT-116, 24 h. The test is classed as functional, cell-based.
The target in test [20] is Serine/threonine-protein kinase mTOR (Homo sapiens, UniProt P42345). The test can be described thus: Inhibition of mTOR (unknown origin).
Test [21] in a line: Inhibition of PI3K (unknown origin). More on the design: species or system Homo sapiens.
Test [22] has as its target T1, Serine/threonine-protein kinase pim-1. The test can be described thus: Inhibition of human PIM1 by ADP Glo luminescent assay. (In general: ADP-Glo turns the ADP formed in a reaction into a luminescent signal.)
For test [23], the system named is HCT-116. The test can be described thus: Antiproliferative activity against human HCT-116 cells assessed as inhibition of cell growth incubated for 72 hrs by celltiter-glo assay. The following applies: HCT-116, 72 h. The test is classed as functional, cell-based.
The subject of another test is MV4-11. The experiment in a line: Antiproliferative activity against human MV4-11 cells assessed as inhibition of cell growth incubated for 72 hrs by Celltiter-glo assay. The test is classed as functional, cell-based. The note with it: MV4-11, 72 h. On the technique in general: ATP-based viability assays read luminescence as a measure of living cells.
For test [24], the target named is T2, Serine/threonine-protein kinase pim-2. The experiment in a line: Inhibition of human PIM2 by ADP-Glo luminescent assay.
The target in test [25] is Dual specificity protein kinase CLK1 (Homo sapiens, UniProt P49759). The experiment in a line: Inhibition of CLK1 (unknown origin) using GRSRSRSRSRSRSRS as substrate incubated for 15 mins in presence of ATP by gamma32P-ATP based analysis.

pIC50: −log10 of the molar value.

Drawing on ChEMBL document CHEMBL5532678, “Comprehensive Insights that Targeting PIM for Cancer Therapy: Prospects and Obstacles” (J Med Chem, 2024), this text covers IC50 for 17 molecules.

Broadly, the pIC50 is the IC50 on a negative log10 scale, so that one unit is a factor of ten. `N#Cc1c(-c2ccccc2)cc(-c2ccccc2)nc1OCC(=O)NO`: in test [1], the pIC50 was 6.37.
With `Cc1cccc(-c2c(-c3cccc(OC(F)(F)F)c3)cc3n2[C@@H](CCN)CNC3=O)c1`, the pIC50 was 8.15 in test [2] and 4.60 in test [3].
Take `CC(C)n1c(C2CCNCC2)nc2c([N+](=O)[O-])c(Br)c(Br)cc21` [DAPOLSERTIB]: the negative logarithm of the IC50 (pIC50) in test [4] was 8.70; in test [5], 8.70; in test [6], 8.52.
Regarding `Cc1nc2sc(C(=O)Nc3ccc(F)c(Cl)c3)c(N)c2c(C)c1Br`, the pIC50 in the test on MCF7 [7] is 4.12; in test [8], 4.45.
As for `CCc1ccc(NC(=O)c2sc3nc(-c4ccc(OC)c(OC)c4)cc(-c4ccc(O)c(O)c4)c3c2N)cc1`, the pIC50 in test [1] is 5.03.
Turning to `COc1ccc(N2C(=O)C(CC(=O)O)S/C2=N/N=C/c2c(C)ccc(C(C)C)c2O)cc1` (stereo unspecified), the pIC50 in test [9] is 5.14; in test [10], 7.43; in test [11], 6.01; in test [12], 4.85; in [13], 5.55.
As to `N#Cc1c(-c2ccco2)cc(-c2ccc(N3C(=O)c4ccccc4C3=O)cc2)nc1N`, the pIC50 with HepG2 is 4.51; in the test with PC-3, 4.48; in the test on MCF7 [14] it was 4.70; in [8], 6.20.
In the case of `CN1CCN(C[C@@H](NC(=O)CC2CNC(=O)c3cc(-c4cccc(Cl)c4)cn32)C2CCCCC2)CC1` (stereo partly specified), in [2], the pIC50 is 8.82.
For `CN1CCN(c2ccc(-n3cnc4ccc(/C=C5\SC(=S)NC5=O)cc43)cc2)CC1`, the pIC50 in test [15] was 4.80; in test [16], 5.19; in test [17] it was 4.80.
Take `COc1ccc(N2CCN(C(=O)c3sc4nc(C)c(Br)c(C)c4c3N)CC2)cc1`: the pIC50 is 3.97 with MCF7 [7] and 4.90 in test [8].
As to `COc1ccc(/C=C/C(/C=C2/C(=O)Nc3cc(Br)ccc32)=N/O)cc1`, the values for the negative-log IC50 (pIC50) in test [2], in test [18] and in [3] were 6.33, 6.44 and 6.66, respectively.
`COc1cc(C2NC(=O)c3sc4nc(C)c(Br)c(C)c4c3N2)ccc1O` (stereo unspecified): the negative-log IC50 (pIC50) is 6.44 in the test with HCT-116 [19] and 6.34 with MCF7 [14].
Regarding `COc1ncc2cc1NS(=O)(=O)c1ccc(F)c(c1)C(=O)NCC1=CC=C(S1)c1ncnc3c1SC2=C3C`, the pIC50 in test [20] is 4.13; in test [21] it was 9.89.
`Cc1nc2cccc3c2nc1N[C@H](C)/C=C\C[C@H]1CNC(=O)c2cc-3[nH]c21`: the pIC50 in test [22] was 6.89; in the test on HCT-116 [23], 4.34; with MV4-11, 4.45; in test [24] it was 6.30.
Take `NC(=O)c1c(O)cc(O)c2c1oc1cc(O)ccc12`: in [25], the negative logarithm of the IC50 (pIC50) is 7.59.
On to `COc1ncc2cc1NS(=O)(=O)c1cccc(c1)C(=O)NCc1cccc(c1)-c1ncnc3c1SC2=C3`, for which the pIC50 is < 5.00 in [20] and 7.77 in [21].
Regarding `CCOc1cc(/C=C2\SC(=S)NC2=O)ccc1O`, the negative-log IC50 (pIC50) in test [15] is 6.38; in test [16], 6.77; in test [17] it was 6.51.
